Measured values from patent US20100190805A1, “PREPARATION FOR THE TREATMENT OF EQUINE LAMINITIS” (BOEHRINGER INGELHEIM VETMEDICA GMBH, priority 2007, published 2010).

Key:
[1] = tested on: horses suffering from acute laminitis; test: Treatment of horses suffering from laminitis with allopurinol (case reports); format: in vivo, horse; details: oral allopurinol 1 to 50 mg/kg of body weight
Excerpt: Thus there are also positive effects on the general condition. […] Only by treating with allopurinol is it possible to carry out this treatment as horses suffering acute pain cannot be fitted with supports.

[2] = horses, cited from earlier work

Oc1ncnc2[nH]ncc12 [allopurinol]
appetite / general condition [1]: appetite returns
inflammation [1]: decline after three days' treatment
lameness [1]: reduced
pain [1]: decline after three days' treatment
time until horses can be fitted with an orthopaedic hoof support ([1]; time after the start of treatment): roughly one week after the start of treatment
bioavailability after oral administration ([2]; oral administration): 14.3%
sum of the areas under the concentration/time curves of allopurinol and oxypurinol after oral administration of allopurinol ([2]; oral versus intravenous allopurinol): identical to that of allopurinol administered intravenously
